# Results published in patent US8193252B1, “Mesoprogestins (progesterone receptor modulators) for the treatment and prevention of benign hormone dependent gynecological disorders” (Bayer Pharma AG, priority 1999, dated 2012).
# Experiments:
# [1] = test system: pregnant guinea pigs; experiment: Abortifacient / labor inducing activity in pregnant guinea pigs; assay type: in vivo, guinea pig; details: for abortifacient activity ED50, guinea pig: s.c., treatment day 43-44 of pregnancy, autopsy day 50; for ranking of abortifacient activity: treated on days 43 and 44 of pregnancy, observed until day 50
# Description: In the guinea pig model which allows a good prediction of the effects in humans with respect to the abortifacient activity (Elger W, Beier S., Chwalisz K, Fähnrich M, Hasan S H, Henderson D, Neef G, Rohde R (1986): Studies on the mechanism of action of progesterone antagonists. J Steroid Biochem 25: 835-845) the mesoprogestins J 867, J 912, J 956, J 1042 lead up to 100 mg/kg/day to a maximal abortion rate of 20%.
# The guinea pig is considered as relevant model of human gestation and parturition (Elger W, Fähnrich M, Beier S, Quing S S, Chwalisz K (1987). Endometrial and myometrial effects of progesterone antagonists in pregnant guinea pigs. Am J Obstet Gynecol 157: 1065-1074; Elger W, Neef G, Beier S, Fähnrich M, Gründel M, Heermann J, Malmendier A, Laurent D, Puri C P, Singh M M, Hasan S H, Becker H (1992). Evaluation of antifertility activities of antigestagens in animal model. In: Puri C P and Van Look P F A (eds), Current Concepts in Fertility Regulation and Reproduction. Wiley Eastern Limited, New Delhi, pp. 303-328; Elger W, Faehnrich M, Beier S, Qing S S, Chwalisz K (1986). Mechanism of action of progesterone antagonists in pregnant guinea pigs. Contraception 6: 47-62; Elger W, Chwalisz K, Faehnrich M, Hasan S H, Laurent D, Beier S, Ottow E, Neef G, Garfield R E (1990). Studies on labor-conditioning and labor-inducing effects of antiprogesterones in animal model. In: Garfield R E (eds), Norwell, pp. 153-175.) The mechanism of abortion of antiprogestins in this species is the initiation of labor and finally the expulsion of the conceptus. Abortifacient effects in the rat during very early pregnancy reflect inhibitory effects on nidation rather than initiation of uterine contractions. Studies in the rat model lead to “overestimation” of the potential of antiprogestins to terminate pregnancy in humans. Conversely, in the guinea pig model, irrespective of the antiprogestin doses, there were high rates of ongoing pregnancies similar to the situation in humans (Elger et al., Current Concepts in Fertility Regulation and Reproduction cited above). Furthermore, in both humans and guinea pigs, there is a strong synergism between antiprogestins and prostaglandins with respect the induction of labor (see the articles cited above and Elger W, Beier S (1983). Prostaglandine and Antigestagene für den Schwangerschaftsabbruch (Prostaglandins and antigestagens for pregnancy termination). German Patent DE 3337450 12; Van Look P, Bygdeman M (1989). Antiprogestational steroids: a new dimension in human fertility regulation. Oxford reviews of reproductive medicine 11: 2-60).
# Pregnant guinea pigs were treated on days 43 and 44 of pregnancy and observed until day 50 of gestation. For the effects of various treatments see table 1 and FIG. 2. It is typical for this model that expulsions occur with a delay of several days after treatment. It can be seen that Mesoprogestins have a much reduced abortifacient activity compared to RU486. […] The differences with respect to abortifacient activity seem qualitative ones. It is not possible to overcome the low abortifacient activity of a Mesoprogestin by the use of a higher dose.
# FIG. 2 is graphs showing data on the assessment on cumulative rate of abortion until day 50 in guinea pigs treated on days 43 and 44 of pregnancy.
# [2] = biological target: T1, progesterone receptor (PR) (Oryctolagus cuniculus, UniProt P06186); experiment: McPhail test, PR agonistic (progestagenic) activity in estradiol-primed juvenile rabbits; assay type: in vivo, rabbit; details: for maximum progestagenic effect relative to progesterone: dose range 0.003-100 mg/rabbit s.c.
# T1 construct: effects of PR-modulators in the uterus of estrogen primed immature rabbits (McPhail test); from tissue; host or cells: uterus (endometrium) of estradiol-primed juvenile rabbits, in vivo
# T1 sequence (P06186 1-930): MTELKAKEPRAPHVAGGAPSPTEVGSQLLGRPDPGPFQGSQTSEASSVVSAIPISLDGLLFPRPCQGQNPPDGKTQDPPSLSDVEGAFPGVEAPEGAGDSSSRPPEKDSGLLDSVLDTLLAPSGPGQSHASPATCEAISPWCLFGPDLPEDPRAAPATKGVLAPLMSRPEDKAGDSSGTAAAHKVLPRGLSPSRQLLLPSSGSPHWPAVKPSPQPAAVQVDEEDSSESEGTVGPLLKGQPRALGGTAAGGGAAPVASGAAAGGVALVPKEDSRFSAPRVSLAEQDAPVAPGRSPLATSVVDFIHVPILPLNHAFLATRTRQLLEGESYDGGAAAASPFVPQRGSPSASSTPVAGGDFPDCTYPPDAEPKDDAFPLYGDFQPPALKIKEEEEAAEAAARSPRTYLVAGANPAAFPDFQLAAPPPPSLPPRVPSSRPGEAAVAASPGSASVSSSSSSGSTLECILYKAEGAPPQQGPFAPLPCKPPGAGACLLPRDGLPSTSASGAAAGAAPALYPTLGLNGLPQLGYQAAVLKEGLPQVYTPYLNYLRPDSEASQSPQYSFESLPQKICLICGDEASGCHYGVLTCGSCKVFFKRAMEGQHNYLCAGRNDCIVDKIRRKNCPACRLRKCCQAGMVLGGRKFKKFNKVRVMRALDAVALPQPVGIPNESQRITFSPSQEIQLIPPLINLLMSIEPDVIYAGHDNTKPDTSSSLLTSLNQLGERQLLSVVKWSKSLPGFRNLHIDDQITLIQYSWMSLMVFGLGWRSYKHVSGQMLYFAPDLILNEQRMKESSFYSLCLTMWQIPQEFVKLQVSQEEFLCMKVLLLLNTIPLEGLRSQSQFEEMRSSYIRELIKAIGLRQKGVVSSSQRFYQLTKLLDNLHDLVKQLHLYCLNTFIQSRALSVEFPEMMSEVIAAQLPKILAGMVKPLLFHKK
# Description: In the classical bioassay, the McPhail test, assessing progestagenic and antiprogestagenic effects in rabbits (Selye H., Textbook of Endocrinology, 1947, pp. 345-346), progesterone produces a maximum McPhail score of 4 (by definition).
# The PR antagonistic and agonistic properties of mesoprogestins were assessed in estrogen-primed rabbits in the McPhail test according to Selye (Textbook of Endocrinology, 1947, pp. 345-346).
# [3] = 4 days s.c. treatment, absence of progesterone
Compound,"abortifacient activity ED50, guinea pig [1]",ranking of abortifacient activity [1],maximum progestagenic effect relative to progesterone [2],"dose of maximum effect [2, 3]","maximum effect, McPhail score [2, 3]",shape of dose response in McPhail test ([2]; absence of progesterone)
"CCSC(=O)O/N=C/c1ccc([C@H]2C[C@@]3(C)[C@@H](CC[C@]3(COC)OC)[C@@H]3CCC4=CC(=O)CCC4=C32)cc1 [J1042, 4-[17β-Methoxy-17α-(methoxymethyl)-3-oxoestra-4,9-dien-11β-yl]benzaldehyd-(1E)-[O-(ethylthio)carbonyl]oxim]",>>100 mg/animal/day,"RU486>J956>J867, J912>J1042","Neither mesoprogestin tested (J1042, J867, J956) reached the maximum effect of progesterone",,,
"COC[C@]1(OC)CC[C@H]2[C@@H]3CCC4=CC(=O)CCC4=C3[C@@H](c3ccc(/C=N/O)cc3)C[C@@]21C [J867, 4-[17β-Methoxy-17α-(methoxymethyl)-3-oxoestra-4,9-dien-11β-yl]benzaldehyd-(1E)-oxim]",>100 mg/animal/day,"RU486>J956>J867, J912>J1042","Neither mesoprogestin tested (J1042, J867, J956) reached the maximum effect of progesterone",,,
"CCNC(=O)O/N=C/c1ccc([C@H]2C[C@@]3(C)[C@@H](CC[C@]3(COC)OC)[C@@H]3CCC4=CC(=O)CCC4=C32)cc1 [J956, 4-[17β-Methoxy-17α-(methoxymethyl)-3-oxoestra-4,9-dien-11β-yl]benzaldehyd-(1E)-[O-(ethylamino)carbonyl]oxim]",20 mg/animal/day,"RU486>J956>J867, J912>J1042","Neither mesoprogestin tested (J1042, J867, J956) reached the maximum effect of progesterone",0.3-1 mg/rabbit,1.5 McPhail score,biphasic response
